Patent US12251413B2, “Use of effective part extract of Monochasma savatieri in preparation of drug for treating inflammatory disease or tumor” (Harbin Kanglong Pharmaceutical Co., Ltd., priority 2022, dated 2025)

Tested on: TNF-α
Assay: Inhibition of TNF-α secretion by LPS-induced RAW264.7 macrophages (ELISA)
Format: cell-based
Conditions: Mus musculus, RAW264.7, LPS 1 μg/mL, 24 h (Table 1), read-out: TNF-α inhibition rate (%)
Excerpt: This test example simulated the inflammatory response at a cellular level in vitro, that is, the inflammatory response of mouse peritoneal macrophages (RAW264.7) was induced by lipopolysaccharide (LPS) to produce models of the inflammatory factors, and an inhibitory effect of the effective part extract of Monochasma savatieri on the TNF-α secreted by cells was detected by ELISA, to evaluate an anti-inflammatory effect thereof.
Test reagents were: RAW264.7 cells; a DMEM medium, a 1640 medium (Invitrogen), fetal bovine serum (Gibco); LPS(Sigma); an ELISA kit (ebioscience), and a CCK8 reagent (Taosu, Beijing).
Test samples were: the B2-13, B2-15, B2-16, and B2-16-15 prepared in Example 1; a positive drug: dexamethasone.
Test method: • 1. Cell culture: the RAW264.7 cells were cultured in the 1640+10% FBS at 37° C. with 5% CO2, and the cells were passaged when showing logarithmic growth. When reaching 80% confluency, the cells were plated in a 96-well plate (density: 2×10^4 cells/well) at 100 μL/well, and then incubated at 37° C. with 5% CO2 for 12 h to 18 h. • 2. […]
Evaluation index: an inhibition rate of the inflammatory factor TNF-α. OD values were read at 450 nm and 570 nm, a standard curve was plotted, a concentration of TNF-α in the medium was calculated, and the inhibition rate and inhibitory activity IC50 value of the samples on the TNF-α produced by the cells were calculated. […]

Work on `C[C@@H]1C[C@H]2[C@@H]3CCC4=CC(=O)C=C[C@]4(C)[C@@]3(F)[C@@H](O)C[C@]2(C)[C@@]1(O)C(=O)CO` [Dexamethasone, dexamethasone] yielded an inhibition at 10 µM of 58.7%.
